From patent US20100152188A1, “Novel Heterocyclic Compounds” (priority 2005, published 2010) come the findings set out here.

One test concerns HDAC. Kind of test: HDAC inhibition. In kind it is biochemical. The conditions noted are these: for HDAC Inhibition 1 μM: compound at 1 μM; for HDAC Inhibition 10 μM: compound at 10 μM.
In test [1] the test system is NCIH460, HCT116, MDAMB-231/U 251. Kind of test: Anti-cancer screen, mean GI50 over the cell lines. In kind it is cell-based. To be noted: in µM. Summed up:
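HCT116, NCIH460 and U251 cells (5000/well) were seeded for 24 h, then exposed in triplicate to 0.01, 0.1, 1, 10 and 100 µM final compound for 48 h. Viability was read by MTT (3 h, absorbance 570 nm), and percent growth was calculated against untreated controls and a T0 plate read at compound addition.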

The subject of the next test is MDAMB-231/U 251. Kind of test: Anti-cancer screen (MTT), MDAMB-231/U 251. It counts as cell-based. The conditions noted are these: for CC50: 48 h, read-out: MDAMB-231/U 251 LC50; for GI50 / IC (TGI): 48 hours with compound, MTT, tested at 0.01-100 µM. The gist of the method: (§1)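 Cells (5000/well) in DMEM with 10% FBS were seeded 24 h, then exposed to compounds at 0.01, 0.1, 1, 10 and 100 µM in triplicate for 48 h at 37 °C. MTT was added for 3 h, formazan dissolved in DMSO and absorbance read at 570 nm; GI50, TGI and LC50 derived from % growth versus T0.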

The subject of the next test is HCT116. Nature of the test: Anti-cancer screen (MTT), HCT116. To be noted: Homo sapiens, HCT-116, 48 hours with compound, tested at 0.01-100 µM. In kind it is cell-based. The gist of the method:
as §1

For the next test, the system named is NCIH460. Kind of test: Anti-cancer screen (MTT), NCIH460. The conditions noted are these: Homo sapiens, NCI-H460, 48 hours with compound, tested at 0.01-100 µM. In kind it is cell-based. The gist of the method: as §1

Consider `O=C(Cc1csc(NC(=O)OCc2nc3ccccc3s2)n1)NO` [Example 9, 1,3-Benzothiazol-2-ylmethyl{4-[2-(hydroxyamino)-2-oxoethyl]-1,3-thiazol-2-yl}carbamate], for which, in the test with HDAC, the “HDAC Inhibition 1 μM” value is given as 17.52 and the “HDAC Inhibition 10 μM” value is 46.21. For the same molecule, the “Mean GI50” value in test [1] is given as 53. Moreover, in the test on MDAMB-231/U 251, the CC50 is more than 100 µM, the GI50 is 38 µM and the IC (TGI) was more than 100 µM. Moreover, in the test with HCT116, the GI50 amounted to 48 µM, the IC (TGI) was more than 100 µM and the LC50 (concentration giving 50% net cell kill relative to T0) is more than 100 µM. Besides, in the test with NCIH460, the GI50 is 73 µM, the IC (TGI) was more than 100 µM and the LC50 was more than 100 µM.
As to `O=C(Nc1nc(CC(=O)N2CCOCC2)cs1)OCc1cccnc1` [Example 10, pyridin-3-ylmethyl[4-(2-morpholin-4-yl-2-oxoethyl)-1,3-thiazol-2-yl]carbamate], in the test on HDAC, the “HDAC Inhibition 1 μM” value is recorded as −9.85 and the “HDAC Inhibition 10 μM” value was determined as 0.14. In addition, the “Mean GI50” value in test [1] amounted to 26.7. Further, in the test on MDAMB-231/U 251, the CC50 was more than 100 µM, the GI50 worked out at 0.4 µM and the IC (TGI) came to 27 µM. For the same molecule, in the test with HCT116, the GI50 was more than 100 µM, the IC (TGI) is more than 100 µM and the LC50 (concentration giving 50% net cell kill relative to T0) was more than 100 µM. Also, in the test with NCIH460, the GI50 is 55 µM, the IC (TGI) is more than 100 µM and the LC50 was more than 100 µM.
With `O=C(Nc1nc(CC(=O)N2CCCCC2)cs1)OCc1cccnc1` [Example 12, Pyridin-3-ylmethyl[4-(2-oxo-2-piperidin-1-ylethyl)-1,3-thiazol-2-yl]carbamate], the “HDAC Inhibition 10 μM” value in the test on HDAC was 10.83. Also, in test [1], the “Mean GI50” value is on record as 50. In the test with MDAMB-231/U 251, the CC50 was more than 100 µM, the GI50 turned out to be 50 µM and the IC (TGI) was more than 100 µM. In addition, in the test with HCT116, the GI50 is more than 100 µM, the IC (TGI) was more than 100 µM and the LC50 (concentration giving 50% net cell kill relative to T0) was more than 100 µM. For the same molecule, in the test with NCIH460, the GI50 is 50 µM, the IC (TGI) stood at 100 µM and the LC50 was more than 100 µM.
For the molecule `O=C(Cc1csc(NC(=O)OCc2cccnc2)n1)NC1CCN(Cc2ccccc2)CC1` [Example 17, Pyridin-3-ylmethyl(4-{2-[(1-benzylpiperidin-4-yl)amino]-2-oxoethyl}-1,3-thiazol-2-yl)carbamate], the “HDAC Inhibition 10 μM” value with HDAC is recorded as 3.61. Moreover, in test [1], the “Mean GI50” value is recorded as 54.8. Besides, in the test with MDAMB-231/U 251, the CC50 was more than 100 µM, the GI50 came out at 2.5 µM and the IC (TGI) amounted to 50 µM. In the test on HCT116, the GI50 stood at 82 µM, the IC (TGI) is more than 100 µM and the LC50 (concentration giving 50% net cell kill relative to T0) is more than 100 µM. Further, in the test with NCIH460, the GI50 came out at 80 µM, the IC (TGI) is more than 100 µM and the LC50 is more than 100 µM.
Regarding `Nc1ccccc1NC(=O)Cc1csc(NC(=O)OCc2cccnc2)n1` [Example 18, Pyridin-3-ylmethyl(4-{2-[(2-aminophenyl)amino]-2-oxoethyl}-1,3-thiazol-2-yl)carbamate], in the test with HDAC, the “HDAC Inhibition 1 μM” value is 2.19 and the “HDAC Inhibition 10 μM” value was 7.99. In test [1], the “Mean GI50” value was more than 100. In addition, in the test with MDAMB-231/U 251, the CC50 was more than 100 µM, the GI50 is 12 µM and the IC (TGI) is more than 100 µM. For the same molecule, in the test with HCT116, the GI50 was more than 100 µM, the IC (TGI) was more than 100 µM and the LC50 (concentration giving 50% net cell kill relative to T0) is more than 100 µM. Moreover, in the test with NCIH460, the GI50 was 100 µM, the IC (TGI) is more than 100 µM and the LC50 was more than 100 µM.
Consider `O=C(Cc1csc(NC(=O)OCc2cccnc2)n1)Nc1ccccc1O` [Example 19, Pyridin-3-ylmethyl(4-{2-[(2-hydroxyphenyl)amino]-2-oxoethyl}-1,3-thiazol-2-yl)carbamate], for which, in the test on HDAC, the “HDAC Inhibition 10 μM” value was 0.50. Moreover, the “Mean GI50” value in test [1] came out at 14.2. For the same molecule, in the test with MDAMB-231/U 251, the CC50 was more than 100 µM, the GI50 is 7.6 µM and the IC (TGI) is 80 µM. Moreover, in the test on HCT116, the GI50 amounted to 34 µM, the IC (TGI) was more than 100 µM and the LC50 (concentration giving 50% net cell kill relative to T0) is more than 100 µM. In addition, in the test with NCIH460, the GI50 was 1 µM, the IC (TGI) amounted to 60 µM and the LC50 is more than 100 µM.
`Nc1ccccc1NC(=O)Cc1csc(NC(=O)OCc2nc3ccccc3s2)n1` [Example 21, 1,3-Benzothiazol-2-ylmethyl(4-{2-[(2-aminophenyl)amino]-2-oxoethyl}-1,3-thiazol-2-yl)carbamate]: in the test on HDAC, the “HDAC Inhibition 1 μM” value stood at 4.41 and the “HDAC Inhibition 10 μM” value stood at 0.57. Besides, the “Mean GI50” value in test [1] was 9. Moreover, in the test on MDAMB-231/U 251, the CC50 is more than 100 µM, the GI50 came out at 4 µM and the IC (TGI) turned out to be 9 µM. Also, in the test on HCT116, the GI50 turned out to be 8 µM, the IC (TGI) was more than 100 µM and the LC50 (concentration giving 50% net cell kill relative to T0) is more than 100 µM. Besides, in the test on NCIH460, the GI50 came out at 15 µM, the IC (TGI) is more than 100 µM and the LC50 was more than 100 µM.
On to `Nc1ccccc1NC(=O)Cc1csc(NC(=O)OCc2nccs2)n1` [Example 23, 1,3-Thiazol-2-ylmethyl(4-{2-[(2-aminophenyl)amino]-2-oxoethyl}-1,3-thiazol-2-yl)carbamate], for which, in the test on HDAC, the “HDAC Inhibition 1 μM” value turned out to be 11.34 and the “HDAC Inhibition 10 μM” value turned out to be 5.18. In test [1], the “Mean GI50” value is on record as more than 100. Besides, in the test on MDAMB-231/U 251, the CC50 is more than 100 µM, the 50% growth inhibitory concentration (GI50) came to 31 µM and the IC (TGI) is more than 100 µM. In the test on HCT116, the GI50 was more than 100 µM, the IC (TGI) is more than 100 µM and the LC50 (concentration giving 50% net cell kill relative to T0) is more than 100 µM. In the test on NCIH460, the GI50 is more than 100 µM, the IC (TGI) is more than 100 µM and the LC50 was more than 100 µM.
Consider `Nc1ccccc1NC(=O)Cc1csc(NC(=O)OCc2ccncc2)n1` [Example 24, Pyridin-4-ylmethyl(4-{2-[(2-aminophenyl)amino]-2-oxoethyl}-1,3-thiazol-2-yl)carbamate], for which, in the test on HDAC, the “HDAC Inhibition 1 μM” value was determined as 1.34 and the “HDAC Inhibition 10 μM” value came out at 3.17. The “Mean GI50” value in test [1] is given as more than 100. Further, in the test with MDAMB-231/U 251, the CC50 was more than 100 µM, the GI50 is more than 100 µM and the IC (TGI) was more than 100 µM. Also, in the test on HCT116, the GI50 was more than 100 µM, the IC (TGI) is more than 100 µM and the LC50 (concentration giving 50% net cell kill relative to T0) was more than 100 µM. Moreover, in the test on NCIH460, the GI50 is more than 100 µM, the IC (TGI) is more than 100 µM and the LC50 was more than 100 µM.
For `O=C(Cc1csc(NC(=O)OCc2ccncc2)n1)NOCc1ccccc1` [Example 25, Pyridin-4-ylmethyl(4-{2-[(benzyloxy)amino]-2-oxoethyl}-1,3-thiazol-2-yl)carbamate], in the test on HDAC, the “HDAC Inhibition 1 μM” value is −0.29 and the “HDAC Inhibition 10 μM” value amounted to 6.62. In addition, in test [1], the “Mean GI50” value is 80.67. In the test on MDAMB-231/U 251, the CC50 was more than 100 µM, the GI50 came out at 85 µM and the IC (TGI) is more than 100 µM. In the test with HCT116, the GI50 amounted to 65 µM, the IC (TGI) is more than 100 µM and the LC50 (concentration giving 50% net cell kill relative to T0) is more than 100 µM. Further, in the test with NCIH460, the GI50 is 92 µM, the IC (TGI) was more than 100 µM and the LC50 was more than 100 µM.
For the molecule `O=C(NCc1ccc(C(=O)NO)cc1)OCc1ccsc1` [Example 27, 3-Thienylmethyl{4-[(hydroxyamino)carbonyl]benzyl}carbamate], in the test on HDAC, the IC50 stood at 0.58 µM, the “HDAC Inhibition 1 μM” value was found to be 67.65 and the “HDAC Inhibition 10 μM” value was determined as 81.85. Further, the “Mean GI50” value in test [1] came to 24.9. In the test with MDAMB-231/U 251, the CC50 was more than 100 µM, the GI50 was more than 100 µM and the IC (TGI) was more than 100 µM. Also, in the test on HCT116, the GI50 was determined as 7 µM, the IC (TGI) was 21 µM and the LC50 (concentration giving 50% net cell kill relative to T0) turned out to be 72 µM. Further, in the test with NCIH460, the GI50 turned out to be 34 µM, the IC (TGI) worked out at 64 µM and the LC50 came out at 100 µM.
On to `O=C(NCc1ccc(C(=O)NO)cc1)OCc1cccs1` [Example 28, 2-Thienylmethyl{4-[(hydroxyamino)carbonyl]benzyl}carbamate], for which, in the test with HDAC, the IC50 is 0.123 µM, the “HDAC Inhibition 1 μM” value was 50.8 and the “HDAC Inhibition 10 μM” value amounted to 63.3. Further, the “Mean GI50” value in test [1] is 13. In addition, in the test with MDAMB-231/U 251, the CC50 was found to be 70 µM, the GI50 worked out at 5 µM and the IC (TGI) worked out at 30 µM. Besides, in the test on HCT116, the GI50 was 5 µM, the IC (TGI) was 15 µM and the LC50 (concentration giving 50% net cell kill relative to T0) stood at 62 µM. Also, in the test on NCIH460, the GI50 stood at 30 µM, the IC (TGI) worked out at 51 µM and the LC50 was more than 100 µM.
For `O=C(NCc1ccc(C(=O)NO)cc1)OCc1nc2ccccc2s1` [Example 30, 1,3-Benzothiazol-2-ylmethyl{4-[(hydroxyamino)carbonyl]benzyl}carbamate], in the test with HDAC, the IC50 amounted to 0.14 µM, the “HDAC Inhibition 1 μM” value was 84 and the “HDAC Inhibition 10 μM” value was determined as 84.6. The “Mean GI50” value in test [1] stood at 0.3. Further, in the test on MDAMB-231/U 251, the CC50 is more than 100 µM, the GI50 came out at 0.78 µM and the IC (TGI) was more than 100 µM. In the test with HCT116, the GI50 is 0.23 µM, the IC (TGI) was 7 µM and the LC50 (concentration giving 50% net cell kill relative to T0) was 61 µM. Moreover, in the test with NCIH460, the 50% growth inhibitory concentration (GI50) stood at 0.02 µM, the IC (TGI) was found to be 0.05 µM and the LC50 amounted to 73 µM.

Broadly, the GI50 is the concentration giving 50% growth inhibition. In general, LC50 refers to the concentration lethal to half of the exposed cells or organisms. In general, IC50 refers to the concentration at which inhibition is half-maximal.
